Measurements taken from patent publication US8772265B2, “Water soluble curcumin compositions for use in anti-cancer and anti-inflammatory therapy” (Universite Libre de Bruxelles, priority 2008, dated 2014).
pIC50: −log10 of the molar value. Converted amounts (≈) assume the structure as drawn. Where two headings read alike, the source gives them in different places. Each block holds one compound with its values, some of them ahead of it.

Tests used:
[1] = Solubilities in water (20° C.); type: physicochemical
Description: The compound according to the invention allows therefore to increase the solubility of curcumin derivatives in aqueous solutions which in turn enables IV administrations and/or increases their bioavailability. The table below presents the solubilities of the various intermediates.

[2] = Influence of different cyclodextrins on curcumin solubility; type: physicochemical; details: FIGS. 11a and 11b
LoVo = test: MTT test, overall cell growth, LoVo; type: cell-based, human; details: read-out: IC50 LoVo
Method: (§1) MTT tests were performed in order to rapidly, i.e. within 5 days, measure the effect of compounds of this invention on the overall cell growth. […] The amount of formazan obtained at the end of the experiment, measured by means of a spectrophotometer, is directly proportional to the number of living cells. Optical density determination thus enabled a quantitative measurement of the effect of the investigated compounds as compared to the control condition (untreated cells) and/or to other reference compounds. Six human cancer cell lines described in Table 5 were used in the following MTT tests. These cancer cell lines cover six histological cancer types, being prostate, glioma, pancreas, colon, lung, and breast cancers. To perform the assay, cells were allowed to grow in 96-well micro-wells with a flat bottom with an amount of 100 μl of cell suspension per well with 1,000 to 4,000 cells/well depending on the cell type used. Each cell line was seeded in its appropriate culture medium. […] Each experiment was performed in sextaplicates. […] The micro-wells were subsequently incubated during 3 hours at 37° C. and centrifuged at 400 g during 10 minutes. MTT was removed and formazan crystals formed were dissolved in 100 μl DMSO. The micro-wells were shaken for 5 minutes and read on a spectrophotometer at wavelengths of 570 nm (maximal formazan absorbance). For each experimental condition, the mean optical density was calculated, allowing the determination of the percentage of remaining living cells in comparison to the control.

BxPC3 = test: MTT test, overall cell growth, BxPC3; type: cell-based, human; details: read-out: IC50 BxPC3
Method: as §1

PC3 [3] = test: MTT test, overall cell growth, PC3; type: cell-based, human; details: read-out: IC50 PC3
Method: as §1

MCF-7 = test: MTT test, overall cell growth, MCF-7; type: cell-based, human; details: read-out: IC50 MCF-7
Method: as §1

A549 = test: MTT test, overall cell growth, A549; type: cell-based, human; details: read-out: IC50 A549
Method: as §1

U-373MG = test: MTT test, overall cell growth, U-373MG; type: cell-based, human; details: read-out: IC50 U-373MG
Method: as §1

[4] = system: SC-VII mouse head and neck cancer cells; test: SC-VII mouse head and neck orthotopic cancer model, survival; type: in vivo; details: IP, NDS27 20 mg/kg 3 times per day, 5 days per week, 3 weeks, cisplatin 5 mg/kg 1 time per week, control vehicle
Method: To test the in vivo anti-cancer activity of the compound according to the invention, we made use of the SC-VII mouse head and neck orthotopic cancer model. SC-VII mouse head and neck cancer cells were cultivated in conventional culture medium containing supplementation in foetal calf serum and antibiotics (penicillin/streptomycin and gentamycin). 500 000 cancer cells were grafted in a serum free culture medium (50 μl) into the floor of the mouth of each mouse. 5 days after the graft, the 44 animals were divided into four groups of 11 mice. The treatments were as follows: • Group 1: mice treated with the vehicle alone (HP-beta-CD—L-Lysine solution) • Group 2: mice treated with cisplatin administered IP at the dosis of 5 mg/kg, 1 time per week during 3 weeks • Group 3: mice treated IP with the NDS27 compound according to the invention administered 3 times per day, 5 days per week during 3 weeks at the doses of 20 mg/kg • Group 4: mice treated with a combination of both treatments described for groups 2 and 3.
Mice were sacrificed when they lost 20% of their weight or when tumour reached 500 mm^2. Survival of the animals was followed and is illustrated in FIG. 8.

[5] = system: isolated neutrophils stimulated by phorbol myristate acetate (PMA); test: ROS production by PMA-stimulated isolated neutrophils (chemiluminescence); type: cell-based; details: FIG. 16
Method: (§2) The ROS production and the release of MPO by activated neutrophils were measured by chemiluminescence and ELISA techniques, respectively (Franck et al., 2008, Physiol. Res. 57(4):577-87). The activity of purified MPO was measured by using an original method called […] (specific immune extraction followed by enzymatic detection) allowing the study of drug interaction with the enzyme without interferences of the medium (Franck et al., 2006, J Vet Diagn Invest, 18(4):326-34).

PC3 [6] = test: Cellular imaging (phase-contrast videomicroscopy), PC3; type: cell-based, human; design: key to effect on cell morphology / effect on cell migration: +++: high effect: cell migration of most cells is drastically altered for most of the duration of the film; ++: medium effect: compound altering cell migration of an important proportion of the cells although less drastically; +: low effect: compound affecting cell migration of a small part of the cell population, or only for a limited part of the 72 h incubation; −: no effect: as compared to the control conditions, no difference is observed; details: PC3, 10 μM; for GGRtreated/GGRcontrol: 72 h, global growth ratio; for effect on cell morphology: characterized by the same way as migration
Method: (§3) Cellular imaging relied on the use of computer-assisted phase-contrast microscopy making possible to film the behavior of living cells in culture dishes for several days. […] The experiment was conducted in quadruplicates. The behaviour of the cells, in terms of morphology, growth/death and migration were thus investigated. The analysis of the films was performed by two operators, working independently. The effect on cell migration was characterized as +++ (high effect: cell migration of most cells is drastically altered for most of the duration of the film), ++ (medium effect: compound altering cell migration of an important proportion of the cells although less drastically), + (low effect: compound affecting cell migration of a small part of the cell population, or only for a limited part of the 72 h incubation), - (no effect: as compared to the control conditions, no difference is observed). The effect on cell morphology was characterized by the same way. The effect on the overall growth was measured by counting the number of cells on the first (0 h) and the last image (72 h) of each film. The global growth ratio (GGR) was then deduced by dividing the number of cells on the last image by the number of cells on the first image. The ratio […], was further calculated thereby obtaining a value that describes the effect of compounds of the present invention on the overall cell growth.

physchem = details: aqueous with cosolvent or surfactant or cyclodextrin
[7] = system: isolated neutrophils stimulated by phorbol myristate acetate (PMA); test: MPO release by activated neutrophils (ELISA); type: cell-based; details: FIG. 18
Method: as §2

purified MPO = test: Activity of purified MPO (SIEFED); type: biochemical; details: FIG. 17
Method: as §2

U-373 MG = test: Cellular imaging (phase-contrast videomicroscopy), U-373 MG; type: cell-based, human; details: 10 μM, 72 h, global growth ratio
Method: as §3

solubility [1]: 500 mg/mL (≈ 324 mM)
Compound: CC(O)COC[C@H]1O[C@@H]2O[C@H]3[C@H](O)[C@@H](O)[C@@H](O[C@H]4[C@H](O)[C@@H](O)[C@@H](O[C@H]5[C@H](O)[C@@H](O)[C@@H](O[C@H]6[C@H](O)[C@@H](O)[C@@H](O[C@H]7[C@H](O)[C@@H](O)[C@@H](O[C@H]8[C@H](O)[C@@H](O)[C@@H](O[C@H]1[C@H](O)[C@H]2O)O[C@@H]8COCC(C)O)O[C@@H]7COCC(C)O)O[C@@H]6COCC(C)O)O[C@@H]5COCC(C)O)O[C@@H]4COCC(C)O)O[C@@H]3COCC(C)O (stereo partly drawn) [HP-beta-CD, hydroxypropyl-beta-cyclodextrin]
effect of the cyclodextrin on curcumin solubility [2]: clearly increase the solubility of curcumin

Compound: NCCCC[C@H](N)C(=O)O [Lysine]
solubility ([1]; 20 °C, water): 640 mg/mL (≈ 4380 mM)

Compound: COc1cc(CCC(=O)CC(=O)CCc2ccc(O)c(OC)c2)ccc1O [Tetrahydrocurcumin, tetrahydrocurcumin]
pIC50 (LoVo; Homo sapiens, LoVo, 72 h): < 5.00
pIC50 (BxPC3; Homo sapiens, BXPC-3, 72 h): < 5.00
pIC50 (PC3 [3]; Homo sapiens, PC-3, 72 h): < 5.00
pIC50 (MCF-7; Homo sapiens, MCF7, 72 h): < 5.00
pIC50 (A549; Homo sapiens, A549, 72 h): < 5.00
pIC50 (U-373MG; Homo sapiens, U373 MG, 72 h): < 5.00

Compound: N.N.[Cl][Pt][Cl] [cisplatin]
T/C index (ratio of median survival of treated mice to control group) [4]: 163%

pIC50 (LoVo; Homo sapiens, LoVo, MTT, 72 hours, colon cancer cell line): 5.03
pIC50 (BxPC3; Homo sapiens, BXPC-3, MTT, 72 hours, pancreas cancer cell line): 5.02
solubility ([1]; Water (20° C.), read-out: solubility): ~0.0003 mg/mL (≈ 0.000814 mM)
solubility (physchem): ≤ 100 mM
pIC50 (PC3 [3]; Homo sapiens, PC-3, MTT, 72 hours, prostate cancer cell line): < 5.00
pIC50 (MCF-7; Homo sapiens, MCF7, MTT, 72 hours, breast cancer cell line): < 5.00
pIC50 (A549; Homo sapiens, A549, MTT, 72 hours, lung cancer cell line): < 5.00
Compound: COc1cc(/C=C/C(=O)CC(=O)/C=C/c2ccc(O)c(OC)c2)ccc1O [curcumin]
inhibitory effect on ROS production / release [5]: dose-dependent inhibitory effects
GGRtreated/GGRcontrol (PC3 [6]): 0.5
effect on cell morphology (PC3 [6]; filmed 72 h): +
effect on MPO release by activated neutrophils [7]: dose-dependent inhibitory effects
inhibitory effect on purified MPO activity (purified MPO): dose-dependent inhibitory effects
pIC50 (U-373MG; Homo sapiens, U373 MG, MTT, 72 hours, glioma cell line): 5.09
GGRtreated/GGRcontrol (U-373 MG): 0.2

Compound: Curcumin Lysinate
inhibitory effect on ROS production / release [5]: dose-dependent inhibitory effects
pIC50 (LoVo; MTT, 72 hours, colon cancer cell line): < 5.00
GGRtreated/GGRcontrol (PC3 [6]): 0.4
effect on cell migration (PC3 [6]; filmed 72 h): ++
effect on cell morphology (PC3 [6]; filmed 72 h): ++
pIC50 (BxPC3; MTT, 72 hours, pancreas cancer cell line): < 5.00
pIC50 (PC3 [3]; MTT, 72 hours, prostate cancer cell line): < 5.00
effect on MPO release by activated neutrophils [7]: dose-dependent inhibitory effects
pIC50 (MCF-7; MTT, 72 hours, breast cancer cell line): < 5.00
pIC50 (A549; MTT, 72 hours, lung cancer cell line): < 5.00
inhibitory effect on purified MPO activity (purified MPO): dose-dependent inhibitory effects
pIC50 (U-373MG; MTT, 72 hours, glioma cell line): 5.00
GGRtreated/GGRcontrol (U-373 MG): 0.2

solubility [1]: 10 mg/mL
Compound: hydroxypropyl-beta-cyclodextrin complex of curcumin lysinate [NDS27]
